{"source": "patent US20060069032A1", "about": "(L'OREAL, priority 2003, published 2006)", "key": {"[1]": {"test_system": "epidermal keratinocyte", "conditions": "Nissen J B et al, Exp. Dermatol. 1997; cited from earlier work"}, "[2]": {"test_system": "Loricrin (LORI) messenger", "assay": "Loricrin messenger expression by quantitative RT-PCR in reconstructed epidermis SkinEthic", "type": "cell-based, human", "method": "(§1) The study was carried out on a model of reconstructed epidermis SkinEthic. Upon receiving, the epidermes were precultured for 24 hours in SkinEthic medium. The culture medium was then replaced with medium containing the test product (two epidermes per concentration tested), and then the epidermes were cultured for 24 hours at 37° C. and 5% CO2. A batch of 2 epidermes was not treated. The culture supernatants were then removed and the epidermes were rinsed with a PBS solution, cut and deposited in sterile RNA-free tubes in the presence of Tri-Reagent (Sigma T9424) and then immediately frozen at −80° C.\n(§2) The pairs of primers which were used in this study allow the amplification of the following specific fragments:\n(§3) The reverse transcription was carried out in the following manner: • extraction of the total RNA of each epidermis with the aid of Tri-Reagent according to the protocol recommended by the supplier, and then a new extraction with chloroform and precipitation with isopropanol. • removal of the traces of potentially contaminating DNA by treating with the DNA-free system (Ambion) • carrying out of the reaction of reverse transcription of the mRNA in the presence of the oligo(dT) primer and of the enzyme Superscript II (Gibco) • quantification, by fluorescence, of the synthesized cDNA and adjustment of the concentrations of 50 ng/ml.\n(§4) The PCR reactions (polymerase chain reactions) were carried out by quantitative PCR with the “Light cycler” system (Roche Molecular Systems Inc.) according to the procedures recommended by the supplier.\n(§5) The PCR conditions were the following: activation of 10 min at 95° C., PCR reactions (10 sec at 95° C., 5 sec at 64° C. and 35 sec at 72° C.) 40 cycles, fusion of 5 sec at 95° C. and then 5 sec at 60° C.\n(§6) The incorporation of fluorescence into the amplified DNA was measured continuously during the PCR cycles. This system makes it possible to obtain fluorescence measurement curves as a function of the PCR cycles and to thereby evaluate a relative expression value for each marker. The RE (relative expression) value is expressed in arbitrary units according to the following formula: (1/2^number of cycles)×10^6.\n(§7) The results were expressed relative to the quantity of actin messenger (reference gene) and are represented, per marker, in the following tables."}, "[3]": {"test_system": "Calmodulin-like skin protein (CLSP) messenger", "assay": "Calmodulin-like skin protein (CLSP) messenger expression by quantitative RT-PCR in reconstructed epidermis SkinEthic", "type": "cell-based, human", "conditions": "0.01 μM, 24 hours", "method": "as §1, §2, §3, §4, §5, §6, §7"}, "[4]": {"test_system": "Transglutaminase 1 (TGK) messenger", "assay": "Transglutaminase I (TGK) messenger expression by quantitative RT-PCR in reconstructed epidermis SkinEthic", "type": "cell-based, human", "method": "as §1, §2, §3, §4, §5, §6, §7"}, "[5]": {"conditions": "0.01 μM, 24 hours, control = 100"}}}
{"substance": "β-Endorphin [Beta-endorphin]", "values": [{"measurement": "effect on epidermal proliferation and differentiation", "setting": "[1]", "result": "no effect"}, {"measurement": "LORI/actin", "setting": "[2]; 0.01 μM, 24 hours", "result": 10.2}, {"measurement": "RE*LORI (UA)", "setting": "[2]; 0.01 μM, 24 hours", "result": 11.24, "unit": "UA"}, {"measurement": "RE*actin (UA)", "setting": "[2]; 0.01 μM, 24 hours, reference gene, loricrin table", "result": 1.11, "unit": "UA"}, {"measurement": "LORI/actin % control", "setting": "[2]; [5]", "result": 179, "unit": "%"}, {"measurement": "expression of the loricrin marker (in words)", "setting": "[2]; at physiological concentration", "result": "stimulate the expression"}, {"measurement": "CLSP/actin", "setting": "[3]", "result": 0.0961}, {"measurement": "RE*CLSP (UA)", "setting": "[3]", "result": 0.1032, "unit": "UA"}, {"measurement": "RE*actin (UA)", "setting": "[3]; reference gene, CLSP table", "result": 1.07, "unit": "UA"}, {"measurement": "CLSP/actin % control", "setting": "[3]; control = 100", "result": 174, "unit": "%"}, {"measurement": "RE*TGK (UA)", "setting": "[4]; 0.01 μM, 24 hours", "result": 0.165, "unit": "UA"}, {"measurement": "RE*actin (UA)", "setting": "[4]; 0.01 μM, 24 hours, reference gene, TGK table", "result": 1.11, "unit": "UA"}, {"measurement": "TGK/actin % control", "setting": "[4]; [5]", "result": 176, "unit": "%"}, {"measurement": "expression of the TGK messenger (in words)", "setting": "[4]; at physiological concentration", "result": "an effect of the same type, although slightly less pronounced"}]}
